Laboratory results as given in paper PMC3103136 (2011).

Experiments:
[1] = molecular target: T1, human tear lipocalin (TL) (Homo sapiens, UniProt P31025, C119L); experiment: fluorescence titration, steady-state deconvoluted with time-resolved lifetimes; type: binding
[2] = molecular target: human tear lipocalin (TL) mutant S61/S153 (Homo sapiens, UniProt P31025, C119L/C171S/C79S); experiment: as above; type: binding
[3] = molecular target: T1, human tear lipocalin (TL); experiment: time-dependent fluorescence binding kinetics
[4] = molecular target: human tear lipocalin (TL) mutant S61/S153 (Homo sapiens, UniProt P31025, C79S/C119L/C171S); experiment: time-dependent fluorescence binding kinetics
Sequence of human tear lipocalin (TL) mutant S61/S153 (Homo sapiens, UniProt P31025, C79S/C119L/C171S) (P31025 19-176 C79S/C119L/C171S): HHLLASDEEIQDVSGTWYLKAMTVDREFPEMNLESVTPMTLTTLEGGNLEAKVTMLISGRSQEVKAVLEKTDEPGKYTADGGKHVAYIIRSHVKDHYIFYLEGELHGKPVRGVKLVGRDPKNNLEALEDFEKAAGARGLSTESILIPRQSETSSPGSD

T1 sequence (P31025 19-176 C119L): as the sequence (P31025 19-176 C79S/C119L/C171S) above, with S61C, S153C counted along it
Sequence of human tear lipocalin (TL) mutant S61/S153 (Homo sapiens, UniProt P31025, C119L/C171S/C79S) (P31025 19-176 C79S/C119L/C171S): as the sequence (P31025 19-176 C79S/C119L/C171S) above

| Structure (SMILES) | Kd [1] | Kd [2] | time-dependent fluorescence binding kinetics (time constant) [3] | time-dependent fluorescence binding kinetics (time constant) [4] |
| --- | --- | --- | --- | --- |
| CN(C)c1cccc2c(S(=O)(=O)NCCCCCCCCCCC(=O)O)cccc12 [DAUDA, 11-((5-dimethylaminonaphthalene-1-sulfonyl)amino)undecanoic acid] | 2400 ± 300 nM | 2600 ± 300 nM |  |  |
| C[C@H](CNc1ccc([N+](=O)[O-])c2nonc12)[C@H]1CC[C@H]2[C@@H]3CC=C4C[C@@H](O)CC[C@]4(C)[C@H]3CC[C@]12C [NBD cholesterol, 22-(N-(7-nitrobenz-2-oxa-1,3-diazol-4-yl)amino)-23,24-bisnor-5-cholen-3\u03B2-ol] |  |  | 11.8 ± 0.2 s | 3.3 ± 0.1 s |
| CCCCCCCCCCCCCCCC(=O)OC[C@H](COP(=O)([O-])OCC[N+](C)(C)C)OC(=O)CCCCCCCCCCCNc1ccc([N+](=O)[O-])c2nonc12 [NBD C12-HPC, 2-(12-(7-nitrobenz-2-oxa-1,3-diazol-4-yl)amino)dodecanoyl-1-hexadecanoyl-sn-glycero-3-phosphocholine] |  |  | 32.2 ± 0.2 s | 22.2 ± 0.4 s |
